US10765114B2, “4-amino-6-(pyridyl and 2-substitutedphenyl)-picolinates and 6-amino-2-(pyridyl and 2-substitutedphenyl)-pyrimidine-4-carboxylates and their use as herbicides” (Dow AgroSciences LLC, priority 2013, dated 2020)
Like-named read-outs stand apart in the source and are kept apart here.

What was measured:
[1] = tested on: Key Broadleaf Weed and Crop Species; assay: Post-Emergent Test II (Table 5); format: in vivo; settings: post-emergence, 336 h; for pest or weed control at 70 g/ha: application rate 70 (kg ai/ha; footnote: g ai/ha); for pest or weed control at 140 g/ha: application rate 140 (kg ai/ha; footnote: g ai/ha)
Summary of the method: (§1)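 Visual injury ratings (0 = no injury, 100 = complete kill) taken 14 days after treatment, relative to untreated controls. Compounds, in an acetone/DMSO aqueous carrier with crop oil and surfactant, were applied by track sprayer at 187 L/ha, in a twofold dilution series from the top rate, to plants at the first to second true-leaf stage.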

[2] = tested on: Key Grass and Sedge Weeds as well as Grass Crops; assay: Post-Emergent Test II (Table 6); format: in vivo; settings: post-emergence, 336 h, 14 days after application; for pest or weed control at 70 g/ha: 70 g ai/ha; for pest or weed control at 140 g/ha: 140 g ai/ha
Summary of the method: as §1

[3] = Abutilon theophrasti, ABUTH: velvetleaf (Abutilon theophrasti), read-out: Visual Growth Reduction (%) 14 Days After Application ABUTH
[4] = Amaranthus retroflexus, AMARE: redroot pigweed (Amaranthus retroflexus), read-out: Visual Growth Reduction (%) 14 Days After Application AMARE
[5] = Brassica napus, BRSSS: oilseed rape, canola (Brassica napus), read-out: Visual Growth Reduction (%) 14 Days After Application BRSSS
[6] = Chenopodium album, CHEAL: lambsquarters (Chenopodium album), read-out: Visual Growth Reduction (%) 14 Days After Application CHEAL
[7] = Euphorbia heterophylla, EPHHL: wild poinsettia (Euphorbia heterophylla), read-out: Visual Growth Reduction (%) 14 Days After Application EPHHL
[8] = Helianthus annuus, HELAN: sunflower (Helianthus annuus), read-out: Visual Growth Reduction (%) 14 Days After Application HELAN
[9] = Viola tricolor, VIOTR: wild pansy (Viola tricolor), read-out: Visual Growth Reduction (%) 14 Days After Application VIOTR
[10] = CYPSS, read-out: Visual Growth Reduction (%) 14 Days After Application CYPSS
[11] = DIGSA: crabgrass (Digitaria sanguinalis), read-out: Visual Growth Reduction (%) 14 Days After Application DIGSA
[12] = ORYSS (crop), read-out: Visual Growth Reduction (%) 14 Days After Application ORYSS
[13] = SETFA: giant foxtail (Setaria faberi), read-out: Visual Growth Reduction (%) 14 Days After Application SETFA
[14] = SORVU: grain sorghum (Sorghum vulgare), read-out: Visual Growth Reduction (%) 14 Days After Application SORVU
[15] = TRZSS (crop), read-out: Visual Growth Reduction (%) 14 Days After Application TRZSS
[16] = ZEAMX: maize, corn (Zea mays), read-out: Visual Growth Reduction (%) 14 Days After Application ZEAMX
[17] = ECHSS, read-out: Visual Growth Reduction (%) 14 Days After Application ECHSS

SMILES: COC(=O)c1nc(-c2ccc(C(F)(F)F)nc2OC)cc(N)c1Cl [Compound 37]
- pest or weed control at 70 g/ha [1, 3]: 75 to 84%
- pest or weed control at 140 g/ha [1, 3]: 75 to 84%
- pest or weed control at 70 g/ha [1, 4]: 60 to 74%
- pest or weed control at 140 g/ha [1, 4]: 75 to 84%
- pest or weed control at 70 g/ha [1, 5]: 0 to 29%
- pest or weed control at 140 g/ha [1, 5]: 30 to 44%
- pest or weed control at 70 g/ha [1, 6]: 85 to 94%
- pest or weed control at 140 g/ha [1, 6]: 85 to 94%
- pest or weed control at 70 g/ha [1, 7]: 0 to 29%
- pest or weed control at 140 g/ha [1, 7]: 0 to 29%
- pest or weed control at 70 g/ha [1, 8]: 0 to 29%
- pest or weed control at 140 g/ha [1, 8]: 60 to 74%
- pest or weed control at 70 g/ha [1, 9]: 0 to 29%
- pest or weed control at 140 g/ha [1, 9]: 0 to 29%
- pest or weed control at 70 g/ha [2, 10]: 0 to 29%
- pest or weed control at 140 g/ha [2, 10]: 0 to 29%
- pest or weed control at 70 g/ha [2, 11]: 0 to 29%
- pest or weed control at 140 g/ha [2, 11]: 0 to 29%
- pest or weed control at 70 g/ha [2, 12]: 0 to 29%
- pest or weed control at 140 g/ha [2, 12]: 0 to 29%
- pest or weed control at 70 g/ha [2, 13]: 0 to 29%
- pest or weed control at 140 g/ha [2, 13]: 0 to 29%
- pest or weed control at 70 g/ha [2, 14]: 0 to 29%
- pest or weed control at 140 g/ha [2, 14]: 0 to 29%
- pest or weed control at 70 g/ha [2, 15]: 0 to 29%
- pest or weed control at 140 g/ha [2, 15]: 0 to 29%
- pest or weed control at 70 g/ha [2, 16]: 0 to 29%
- pest or weed control at 140 g/ha [2, 16]: 0 to 29%

SMILES: Nc1c(F)c(-c2ccc(I)nc2)nc(C(=O)O)c1Cl [Compound 81]
- pest or weed control at 70 g/ha [1, 3]: 85 to 94%
- pest or weed control at 140 g/ha [1, 3]: 85 to 94%
- pest or weed control at 70 g/ha [1, 4]: 95 to 100%
- pest or weed control at 140 g/ha [1, 4]: 95 to 100%
- pest or weed control at 70 g/ha [1, 5]: 85 to 94%
- pest or weed control at 140 g/ha [1, 5]: 85 to 94%
- pest or weed control at 70 g/ha [1, 6]: 95 to 100%
- pest or weed control at 140 g/ha [1, 6]: 95 to 100%
- pest or weed control at 70 g/ha [1, 7]: 95 to 100%
- pest or weed control at 140 g/ha [1, 7]: 95 to 100%
- pest or weed control at 70 g/ha [1, 8]: 75 to 84%
- pest or weed control at 140 g/ha [1, 8]: 85 to 94%
- pest or weed control at 70 g/ha [1, 9]: 95 to 100%
- pest or weed control at 140 g/ha [1, 9]: 95 to 100%
- pest or weed control at 70 g/ha [2, 10]: 95 to 100%
- pest or weed control at 140 g/ha [2, 10]: 95 to 100%
- pest or weed control at 70 g/ha [2, 11]: 75 to 84%
- pest or weed control at 140 g/ha [2, 11]: 75 to 84%
- pest or weed control at 70 g/ha [2, 17]: 85 to 94%
- pest or weed control at 140 g/ha [2, 17]: 85 to 94%
- pest or weed control at 70 g/ha [2, 12]: 45 to 59%
- pest or weed control at 140 g/ha [2, 12]: 60 to 74%
- pest or weed control at 70 g/ha [2, 13]: 75 to 84%
- pest or weed control at 140 g/ha [2, 13]: 85 to 94%
- pest or weed control at 70 g/ha [2, 14]: 45 to 59%
- pest or weed control at 140 g/ha [2, 14]: 45 to 59%
- pest or weed control at 70 g/ha [2, 15]: 60 to 74%
- pest or weed control at 140 g/ha [2, 15]: 60 to 74%
- pest or weed control at 70 g/ha [2, 16]: 30 to 44%
- pest or weed control at 140 g/ha [2, 16]: 45 to 59%

SMILES: COC(=O)c1nc(-c2ccc(Cl)c(F)c2C)nc(N)c1Cl [Compound 31]
- pest or weed control at 70 g/ha [1, 3]: 85 to 94%
- pest or weed control at 140 g/ha [1, 3]: 85 to 94%
- pest or weed control at 70 g/ha [1, 4]: 95 to 100%
- pest or weed control at 140 g/ha [1, 4]: 95 to 100%
- pest or weed control at 70 g/ha [1, 5]: 30 to 44%
- pest or weed control at 140 g/ha [1, 5]: 45 to 59%
- pest or weed control at 70 g/ha [1, 6]: 95 to 100%
- pest or weed control at 140 g/ha [1, 6]: 95 to 100%
- pest or weed control at 70 g/ha [1, 7]: 0 to 29%
- pest or weed control at 140 g/ha [1, 7]: 0 to 29%
- pest or weed control at 70 g/ha [1, 8]: 85 to 94%
- pest or weed control at 140 g/ha [1, 8]: 85 to 94%
- pest or weed control at 70 g/ha [1, 9]: 0 to 29%
- pest or weed control at 140 g/ha [1, 9]: 0 to 29%
- pest or weed control at 70 g/ha [2, 10]: 0 to 29%
- pest or weed control at 140 g/ha [2, 10]: 0 to 29%
- pest or weed control at 70 g/ha [2, 11]: 0 to 29%
- pest or weed control at 140 g/ha [2, 11]: 0 to 29%
- pest or weed control at 70 g/ha [2, 17]: 0 to 29%
- pest or weed control at 140 g/ha [2, 17]: 0 to 29%
- pest or weed control at 70 g/ha [2, 12]: 0 to 29%
- pest or weed control at 140 g/ha [2, 12]: 0 to 29%
- pest or weed control at 70 g/ha [2, 14]: 0 to 29%
- pest or weed control at 140 g/ha [2, 14]: 0 to 29%
- pest or weed control at 70 g/ha [2, 15]: 0 to 29%
- pest or weed control at 140 g/ha [2, 15]: 0 to 29%
- pest or weed control at 70 g/ha [2, 16]: 0 to 29%
- pest or weed control at 140 g/ha [2, 16]: 0 to 29%
